Experimental data as given in ChEMBL document CHEMBL4616581, “Current scenario of artemisinin and its analogues for antimalarial activity” (Eur J Med Chem, 2019).
Converted amounts (≈) assume the structure as drawn.

Experiments:
Assay type in all cases: functional, organism-based
Plasmodium falciparum [1] = assay: Antimalarial activity against Plasmodium falciparum D6
Plasmodium falciparum [2] = assay: Antimalarial activity against Plasmodium falciparum W2
Plasmodium falciparum [3] = assay: Antimalarial activity against Plasmodium falciparum NF54 after 48 hrs by spectrophotometric analysis; conditions: NF54, 48 h
Plasmodium falciparum [4] = assay: Antimalarial activity against Plasmodium falciparum K1
Plasmodium falciparum [5] = assay: Antimalarial activity against Plasmodium falciparum HB3
Plasmodium falciparum [6] = assay: Antimalarial activity against Plasmodium falciparum D6 after 24 hrs by in presence of [3H]hypoxanthine
Plasmodium falciparum [7] = assay: Antimalarial activity against Plasmodium falciparum W2 after 24 hrs by in presence of [3H]hypoxanthine
Plasmodium falciparum [8] = assay: Antimalarial activity against Plasmodium falciparum K1 by [3H]-hypoxanthine incorporation assay
Plasmodium falciparum [9] = assay: Antimalarial activity against blood stages of chloroquine-resistant Plasmodium falciparum K1

`C[C@H]1[C@@H](CCO)O[C@@H]2O[C@]3(C)CC[C@H]4[C@H](C)CC[C@@H]1[C@@]24OO3` showed an IC50 (Plasmodium falciparum [1]) of 0.34 ng/mL (≈ 1.09 nM) and an IC50 (Plasmodium falciparum [2]) of 0.18 ng/mL (≈ 0.576 nM).
For `CCC[C@H]1O[C@@H]2O[C@]3(C)CC[C@H]4[C@H](C)CC[C@@H]([C@H]1C)[C@@]24OO3`, the IC50 (Plasmodium falciparum [1]) was 0.41 ng/mL (≈ 1.32 nM) and the IC50 (Plasmodium falciparum [2]) was 0.16 ng/mL (≈ 0.515 nM).
`C[C@@H]1CC[C@@H]2[C@]34OO[C@@](C)(CC[C@@H]13)O[C@H]4OC(O/C=C/c1ccccc1)[C@]2(C)O` (stereo partly drawn) was tested, and the IC50 (Plasmodium falciparum [3]) was 106 nM.
In the case of `C[C@H]1[C@@H](OCc2ccc(CN3CCCCC3)cc2)O[C@@H]2O[C@]3(C)CC[C@H]4[C@H](C)CC[C@@H]1[C@@]24OO3`, the IC50 (Plasmodium falciparum [4]) is reported as 9.8 nM and the IC50 (Plasmodium falciparum [5]) is reported as 12.2 nM.
`C[C@@H]1CC[C@@H]2[C@]34OO[C@@](C)(CC[C@@H]13)O[C@H]4OC(OCC1CC1)[C@]2(C)O` (stereo partly drawn) showed an IC50 (Plasmodium falciparum [3]) of 158 nM.
With `C[C@H]1[C@@H](O[C@@H](C)CC(=O)O)O[C@@H]2O[C@]3(C)CC[C@H]4[C@H](C)CC[C@@H]1[C@@]24OO3` the IC50 (Plasmodium falciparum [6]) was 15 ng/mL and the IC50 (Plasmodium falciparum [7]) was 7.43 ng/mL.
Molecule `C[C@H]1[C@@H](OCc2ccc(CO)cc2)O[C@@H]2O[C@]3(C)CC[C@H]4[C@H](C)CC[C@@H]1[C@@]24OO3` has an IC50 (Plasmodium falciparum [4]) of 4.4 nM and an IC50 (Plasmodium falciparum [5]) of 4.2 nM.
`COC(=O)CC[C@@H](OC1O[C@@H]2O[C@]3(C)CC[C@H]4[C@H](C)CC[C@@H]([C@H]1C)[C@@]24OO3)c1ccc(F)cc1` (stereo partly drawn) gave an IC50 (Plasmodium falciparum [1]) of 0.43 ng/mL (≈ 0.9 nM) and an IC50 (Plasmodium falciparum [2]) of 0.398 ng/mL (≈ 0.832 nM).
`CCNCCO[C@H]1O[C@@H]2O[C@]3(C)CC[C@H]4[C@H](C)CC[C@@H]([C@H]1C)[C@@]24OO3` gave an IC50 (Plasmodium falciparum [4]) of 4.1 nM and an IC50 (Plasmodium falciparum [5]) of 4.1 nM.
For `CC1CCC2C(CCCCCCC[C@]3(C[C@@H]4C(=O)O[C@@H]5O[C@]6(C)CC[C@H]7[C@H](C)CC[C@@H]4[C@@]57OO6)C(=O)O[C@@H]4O[C@]5(C)CC[C@H]6[C@H](C)CC[C@@H]3[C@@]46OO5)C(O)OC3OC4(C)CCC1C32OO4` (stereo partly drawn), the EC50 (Plasmodium falciparum [8]) was 3.1 nM.
`CO[C@H]1O[C@@H]2C[C@]3(C)CC[C@H]4[C@H](C)CC[C@@H]([C@H]1C)[C@@]24OO3` showed an IC50 (Plasmodium falciparum [9]) of 0.301 ng/mL (≈ 1.01 nM).
In the case of `COC(=O)[C@@H](C)CO[C@H]1O[C@@H]2O[C@]3(C)CC[C@H]4[C@H](C)CC[C@@H]([C@H]1C)[C@@]24OO3`, the IC50 (Plasmodium falciparum [6]) is reported as 0.36 ng/mL and the IC50 (Plasmodium falciparum [7]) is reported as 0.015 ng/mL.
In the case of `COC(=O)C[C@H](C)O[C@H]1O[C@@H]2O[C@]3(C)CC[C@H]4[C@H](C)CC[C@@H]([C@H]1C)[C@@]24OO3`, the IC50 (Plasmodium falciparum [6]) is reported as 1.19 ng/mL and the IC50 (Plasmodium falciparum [7]) is reported as 0.48 ng/mL.
For `C[C@@H]1CC[C@H]2[C@](C)(Br)[C@@H](Nc3ccccc3)O[C@@H]3O[C@]4(C)CC[C@@H]1[C@]32OO4`, the IC50 (Plasmodium falciparum [1]) was 3.42 ng/mL (≈ 7.8 nM) and the IC50 (Plasmodium falciparum [2]) was 0.63 ng/mL (≈ 1.44 nM).
`CNCCO[C@H]1O[C@@H]2O[C@]3(C)CC[C@H]4[C@H](C)CC[C@@H]([C@H]1C)[C@@]24OO3` was tested, and the IC50 (Plasmodium falciparum [4]) was 24 nM and the IC50 (Plasmodium falciparum [5]) was 27 nM.
`C[C@@H]1CC[C@H]2[C@@H](C)C(CCCO)O[C@@H]3O[C@]4(C)CC[C@@H]1[C@]32OO4` (stereo partly drawn) was tested, and the IC50 (Plasmodium falciparum [1]) was 0.23 ng/mL (≈ 0.705 nM) and the IC50 (Plasmodium falciparum [2]) was 0.23 ng/mL (≈ 0.705 nM).
`C[C@H]1[C@@H](OCc2ccc(CN)cc2)O[C@@H]2O[C@]3(C)CC[C@H]4[C@H](C)CC[C@@H]1[C@@]24OO3` gave an IC50 (Plasmodium falciparum [4]) of 1.4 nM and an IC50 (Plasmodium falciparum [5]) of 3.1 nM.
`C[C@@H]1CC[C@H]2[C@](C)(Br)[C@@H](Nc3ncccn3)O[C@@H]3O[C@]4(C)CC[C@@H]1[C@]32OO4` showed an IC50 (Plasmodium falciparum [1]) of 26 ng/mL (≈ 59 nM) and an IC50 (Plasmodium falciparum [2]) of 5.56 ng/mL (≈ 12.6 nM).
With `C[C@H]1[C@@H](OCc2ccc(CN3CCOCC3)cc2)O[C@@H]2O[C@]3(C)CC[C@H]4[C@H](C)CC[C@@H]1[C@@]24OO3` the IC50 (Plasmodium falciparum [4]) was 35 nM and the IC50 (Plasmodium falciparum [5]) was 50 nM.
`C[C@H]1[C@@H](OC2O[C@H](CO)[C@H](O)[C@H](O)[C@H]2O)O[C@@H]2O[C@]3(C)CC[C@H]4[C@H](C)CC[C@@H]1[C@@]24OO3` (stereo partly drawn) showed an IC50 (Plasmodium falciparum [6]) of 13.1 ng/mL and an IC50 (Plasmodium falciparum [7]) of 35.6 ng/mL.
`COC(=O)CC[C@H](OC1O[C@@H]2O[C@]3(C)CC[C@H]4[C@H](C)CC[C@@H]([C@H]1C)[C@@]24OO3)c1ccc(F)cc1` (stereo partly drawn) was tested, and the IC50 (Plasmodium falciparum [1]) was 0.616 ng/mL (≈ 1.29 nM) and the IC50 (Plasmodium falciparum [2]) was 0.488 ng/mL (≈ 1.02 nM).
For `C[C@H]1[C@@H](OCCN2CCCC2)O[C@@H]2O[C@]3(C)CC[C@H]4[C@H](C)CC[C@@H]1[C@@]24OO3`, the IC50 (Plasmodium falciparum [4]) was 23 nM and the IC50 (Plasmodium falciparum [5]) was 23 nM.
With `C[C@H]1[C@@H](OC[C@@H](C)C(=O)O)O[C@@H]2O[C@]3(C)CC[C@H]4[C@H](C)CC[C@@H]1[C@@]24OO3` the IC50 (Plasmodium falciparum [6]) was 22.2 ng/mL and the IC50 (Plasmodium falciparum [7]) was 5.34 ng/mL.
With `C[C@@H]1CC[C@H]2[C@@H](C)C(OC(=O)c3cccc([N+](=O)[O-])c3)O[C@@H]3O[C@]4(C)CC[C@@H]1[C@]32OO4` (stereo partly drawn) the IC50 (Plasmodium falciparum [3]) was 10.6 nM.
